Assay [1] deals with Ki-67 positive cells. Description: Gastric MALT lymphoma model: Ki-67 positive cells in lymphoid follicle (immunostaining). Type of assay: in vivo, C57BL/6 female mouse. The conditions noted are these: 200 μM in water; 6 months after infection with Helicobacter suis TKY strain. How it is done: (§1) Helicobacter suis is suspected to be the cause of the onset of gastric MALT lymphoma. A 5-week-old C57BL/6 female mouse was orally infected only once with a stomach suspension of Helicobacter suis TKY strain-infected mouse and dissected 6 months after the infection, and the number of bacteria in the gastric mucosa was counted according to the method described in Example 5. Water added with HYA (200 μM) was given to the mouse from one week before the infection.
Ki-67 is known as a marker for cell proliferation and cell cycle. Proliferated cells in a tumor tissue were detected by immunostaining with anti-Ki-67 antibody. A part of the stomach was fixed with 10% neutral formalin buffer to prepare a paraffin block, serial sections were cut out using a microtome and Hematoxylin Eosin (HE) staining was performed. Ki-67 (Clone SP6) rabbit monoclonal antibody (Thermo Fisher Scientific Inc.) diluted 1:300 was used as a dilution antibody, Histofine Simple Stain mouse MAX-PO® (NICHIREI BIOSCIENCES INC., Code: 414341) DAB staining (DAKO Inc.) was used as a secondary antibody, and Hematoxylin was used for comparison staining. As the negative control, rabbit IgG antibody (Code No. X 0936 Lot 050 (DAKO Inc.)) was used. […]

The subject of assay [2] is CD19 and CD20 expression. The experiment in a line: Gastric MALT lymphoma model: CD19, CD20 expression in gastric mucosa (real-time RT-PCR). Type of assay: in vivo, C57BL/6 female mouse. As to conditions: 200 μM in water; 6 months after infection with Helicobacter suis TKY strain; relative to GAPDH. How it is done:
as §1
CD19 and CD20 are cell surface markers for B-cell lymphoma. Using real-time reverse transcription PCR (real-time RT-PCR), the expression levels of CD19 and CD20 were measured. Using NucleoSpin (registered trade mark) RNA Kit (Takara Bio Inc.), RNA was prepared from mouse gastric mucosa. Using PrimeScript™ RT Reagent Kit (Takara Bio Inc.), cDNA was prepared from RNA. For real-time RT-PCR, KAPA SYBR Fast ROX Low qPCR kit (KAPA BIOSYSTEMS Inc.) and QuantStudio7 Flex Real-time PCR System (Thermo Fisher Scientific Inc.) were used.
The conditions of 2-step real-time RT-PCR were as follows.
The expression level of CD19 or CD20 relative to that of glyceraldehyde-3-phosphate dehydrogenase (GAPDH) was converted to a numerical value and the value was further adjusted to make the average expression of CD19 or CD20 of the non-infection group 1. […]

Assay [3] has as its system Helicobacter pylori SS1 strain, TN2GF4 strain, ATCC43579 strain, NCTC11637 strain, TY281 strain, TY1345 strain. The experiment in a line: Proliferation inhibitory effect (in vitro), static culture 3 days, colony count. Type of assay: cell-based. The conditions noted are these: fatty acid 200 μM or 1000 μM, 3 days; six strains; compared with linoleic acid. The method, then:
Helicobacter pylori SS1 strain, TN2GF4 strain, ATCC43579 strain, NCTC11637 strain, TY281 strain, TY1345 strain were each inoculated to a 6-well plate containing 3 mL of a liquid medium (Brucella broth added with 10% FCS), and fatty acid (200 μM or 1000 μM) and menaquinone (MK-4) 100 μg/mL were added. After static culture for 3 days at temperature 37° C., microaerobic conditions (5% 02, 10% 002, 85% N2), the culture medium was applied on a Helicobacter agar plate, cultured for 3 days and the resulting colonies were counted (FIG. 1-1 A: SS1 strain, FIG. 1-2 B: TN2GF4 strain, FIG. 1-3 C: ATCC43579 strain, FIG. 1-4 D: NCTC11637 strain, FIG. 1-5 E: TY281 strain, FIG. 1-6 F: TY1345 strain. Item C: control (no addition), Item 1: HYA addition, Item 2: HYA and menaquinone addition, Item 3: linoleic acid addition, Item 4: linoleic acid and menaquinone addition).

Assay [4] concerns Helicobacter suis TKY strain or SNTW101 strain. Description: Proliferation inhibitory effect (in vivo) of HYA on Helicobacter suis, real-time PCR quantification, 2 weeks after infection. Set-up: species or system C57BL/6 female mouse. As to conditions: 200 μM in water from one week before infection; 2 weeks later. How it is done:
A 5-week-old C57BL/6 female mouse was orally infected 3 times with Helicobacter pylori SS1 strain or TN2GF4 strain (1-5×10^8 CFU) every other day and dissected at 2 weeks from the final infection day, and the number of bacteria in the gastric mucosa was counted. Water added with HYA or linoleic acid (200 μM) was given to the mice from 1 week before infection (FIG. 4-1 A: SS1 strain, FIG. 4-2 B: TN2GF4 strain). A 5-week-old C57BL/6 female mouse was orally infected only once with a stomach suspension of Helicobacter suis TKY strain or SNTW101 strain-infected mouse and dissected 2 weeks later, and the number of bacteria in the gastric mucosa was counted. Water added with HYA (200 μM) was given to the mouse from one week before the infection (FIG. 4-3 C). […]
DNA was prepared from a part of the stomach tissue by using DNeasy Blood & Tissue Kit (Qiagen) and real-time PCR (model: CFX96 (Bio-Rad)) was performed. As the primer for Helicobacter suis quantification, the following was used by reference to Diagn. […]
The following were used as the primers for β-actin quantification of the mouse by reference to J. Clin. Microbiol. […]
For quantification by real-time PCR, iQ™ SYBR Green Supermix was used. […]
Thereafter, the temperature was increased by 0.5° C. every seconds from 65° C. to 95° C. and the fluorescence was measured. […]
Background: Real-time PCR tracks product formation cycle by cycle.

With `CCCCC/C=C\CC(O)CCCCCCCCC(=O)O` (stereo not drawn) [HYA, 10-hydroxy-cis-12-octadecenoic acid], the “increase in the number of Ki-67 positive cells, compared to the non-administration group” value in assay [1] was “significantly suppressed”. In assay [2], the “CD19 relative expression level, compared to the non-administration group” value is “significantly suppressed” and the “CD20 relative expression level, compared to the non-administration group” value is given as “significantly suppressed”. The “proliferation of Helicobacter pylori (colony count)” value in assay [3] is listed as “suppressed proliferation”. The “proliferation of Helicobacter suis TKY strain, SNTW101 strain (number of bacteria in gastric mucosa)” value in assay [4] is “inhibited proliferation”.

For the origin of these results see US12357601B2, “Composition for inhibiting growth of bacterium having menaquinone synthesis pathway through futalosine or futalosine derivative” (NOSTER INC., priority 2017, dated 2025).
